Assay results published in patent US4705803A, “Method of improving resorption of injected antibacterially active substances or combinations” (Boehringer Ingelheim Vetmedica GmbH, priority 1982, dated 1987).

Assays:
[1] = physchem; details: water
[2] = acute toxicity (LD50) in the mouse; details: in vivo, ip
Excerpt: For example, the acute toxicity (LD50) in the mouse is […]

[3] = test system: respiratory tract secretion; details: cited from earlier work; for concentration of solids in the fluid of the respiratory tract / quantity of secretion / viscosity of the secretion: human and veterinary medicine; for specific weight: solids/fluid of the respiratory tract
[4] = maximum solubility in water

SMILES	solubility [1] [mg/mL]	LD50 [2] [mg/kg]	concentration of solids in the fluid of the respiratory tract [3]	quantity of secretion [3]	viscosity of the secretion [3]	specific weight [3]	solubility [4] [mg/mL]
CN(Cc1cc(Br)cc(Br)c1N)C1CCCCC1.Cl [Compound A, N-(2-amino-3,5-dibromo-benzyl)-N-methyl-cyclohexylamine hydrochloride]	0.2 to 5	> 400	reduction	significant increase	decrease	reduction	
Cl.Oc1c(Br)cc(Br)cc1CN[C@H]1CC[C@H](O)CC1 [Compound C, N-(3,5-dibromo-2-hydroxy-benzyl)-trans-4-hydroxycyclohexylamine hydrochloride]		> 800					0.1 to 1
Cl.Nc1c(Br)cc(Br)cc1CN[C@H]1CC[C@H](O)CC1 [Compound B, N-(2-amino,3,5-dibromo-benzyl)-trans-4-hydroxy-cyclohexylamine hydrochloride]	16.6	268	reduction	significant increase	decrease	reduction	
